In patent publication US20190359645A1, “2'3'-CYCLIC DINUCLEOTIDES COMPRISING CARBOCYCLIC NUCLEOTIDE” (Institute of Organic Chemistry and Biochemistry ASCR, V.V.I., priority 2018, published 2019) one finds ΔTm data, which are given here for three compounds.

This experiment addresses T1, AQ STING (G230A-R293Q) (Homo sapiens, UniProt Q86WV6, G230A/H232R/R293Q).
T1 construct: truncated human WT STING or AQ STING (amino acid residues 140-343); 8xHis (N, cleaved yes); SUMO (N, cleaved yes); made in house; host or cells: E. coli Rosetta-gami B (DE3)
Description: Differential scanning fluorimetry (DSF) with AQ STING. In kind it is binding. The settings on record: thermal shift, truncated human AQ STING 0.1 mg/ml, 150 μM CDN; read-out: DSF ΔTm AQ STING. The text has this: Both WT and AQ human STING (G230A-R^293Q) cDNA were amplified by the use of PCR (Phusion® High-Fidelity DNA Polymerase, cat. # M0530S, NEB, Ipswich, USA) using oligonucleotides hSTING140-BamH-For ([…]) (SEQ ID NO:5) and hSTING379-Not-Rev3 ([…]) (SEQ ID NO:6) from pUNOI-hSTING-WT (cat. # punol-hstingwt, InvivoGen, San Diego, USA) and pUNO1-hSTING-HAQ plasmids (punol-hsting-haq, InvivoGen, San Diego, USA). Purified PCR products were cleaved with restriction enzymes BamHI (cat. # R^0136S, NEB, Ipswich, USA) and NotI (cat. # R^0189S, NEB, Ipswich, USA) and cloned into the pSUMO vector linearized with the identical enzymes. Plasmid pSUMO was created by introducing 8-His-SUMO sequence between NdeI and BamHI sites of pHis-parallel2 plasmid (Clontech, Moutain View, USA). pSUMO-STING WT or pSUMO-STING AQ plasmids thus encoded truncated human WT STING or AQ STING (amino acid residues 140-343) with N-terminal 8×His and SUMO tag.
The recombinant WT STING and AQ STING proteins were overexpressed in Rosetta-gami B (DE3) competent cells (cat. #71136-3, Merck Millipore, Billerica, USA). Bacterial pellets were re-suspended in ice-cold lysis buffer containing 50 mmol·l^−1 TrisCl (cat. # T1503, Sigma Aldrich, Czech Republic) pH 8.0, 300 mmol·l^−1 NaCl, 3 mmol·l^−1 (3-mercaptoethanol (cat. # M6250, Sigma Aldrich, Czech Republic), 10% glycerol (cat. #G5516, Sigma Aldrich, Czech Republic) and 20 mmol·l^−1 imidazole (cat. #15513, Sigma Aldrich, Czech Republic) using Dounce homogenizer. DNase I (cat. # D5025, Sigma Aldrich, Czech Republic) and RNase A (cat. # R^6513, Sigma Aldrich, Czech Republic) were added (final concentration 50 μg/ml) together with MgCl2 (final concentration 5 mmol·l^−1) to the homogenate and bacteria were lysed using French Press G-M™ High-Pressure Cell Press Homogenizer (1500 psi, 3 cycles). Lysate was spun 30,000 g for 20 minutes and supernatant was gently stirred with Ni-NTA resin (cat. #745400.25 Macherey-Nagel, Duren, Germany) for 30 minutes. The resin was poured into a chromatography column, washed with 50 ml buffer A (50 mmol·l^−1 TrisCl (pH 8.0), 800 mmol·l^−1 NaCl, 3 mmol·l^−1β-mercaptoethanol; 10% glycerol; 20 mmol·l^−1 imidazole) and 8-His-SUMO tagged STING proteins were eluted with 15 ml buffer A containing 300 mmol·l^−1 imidazole. The eluted proteins were cleaved with recombinant SUMO protease (80 pig/ml of protein solution, cat. #12588018, ThermoFisher, Waltham, USA). The proteins were further purified by size exclusion chromatography using HiLoad 16/60 Superdex 75 (cat. #28989333, GE Healthcare Bio-Sciences, Pittsburgh, USA) in 50 mmol·l^−1 Tris C1 buffer pH 7.4 containing 150 mmol·l^−1 NaCl, and 10% glycerol. Proteins were concentrated with Amicon® Ultra-15 10 K device (cat. # UFC901008, Merck Millipore, Billerica, USA) and flash frozen in liquid N2.
WT and AQ allelic forms of STING protein were diluted to the final concentration 0.1 mg/ml in 100 mmol·l^−1 TrisCl buffer pH 7.4 containing, 150 mmol·l^−1 NaCl, 1:500 SYPRO Orange (cat. # S6650, ThermoFisher, Waltham, USA) and 150 μM CDN or water. 20 μL solutions of the reaction mixtures were pipetted in triplicates into 96 well optical reaction plates and thermal denaturation of samples were performed on real time PCR cycler (LightCycler® 480 Instrument II—Roche, Basel, Switzerland). The first derivative of the thermal denaturation curves was performed to calculate denaturing temperatures of STING-CDN complexes and STING apoproteins. The thermal shift for each CDN was calculated by subtracting the average denaturing temperature of STING apoprotein from the average denaturing temperature of STING CDN complex.

T1 sequence (Q86WV6 140-343 G230A/H232R/R293Q): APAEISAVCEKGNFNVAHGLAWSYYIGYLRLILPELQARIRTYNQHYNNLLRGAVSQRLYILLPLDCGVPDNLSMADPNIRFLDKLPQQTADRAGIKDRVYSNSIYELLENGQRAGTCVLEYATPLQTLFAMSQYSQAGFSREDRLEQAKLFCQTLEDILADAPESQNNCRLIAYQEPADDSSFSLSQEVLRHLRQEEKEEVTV

On to `Nc1nc2c(ncn2[C@@H]2C[C@@H]3COP(=O)(S)OC4C(O)[C@H](n5cnc6c(N)ncnc65)O[C@@H]4COP(=O)(O)OC2C3O)c(=O)[nH]1` (stereo partly drawn) [Compound 118, (6R,8R,15R,17R)-17-(2-amino-6-oxo-6,9-dihydro-1H-purin-9-yl)-8-(6-amino-9H-purin-9-yl)-3,9,18-trihydroxy-12-sulfanyl-2,4,7,11,13-pentaoxa-3λ^5,12λ^5-diphosphatricyclo[13.2.1.0^6,10]octadecane-3,12-dione], for which the ΔTm at 150 µM stood at 16 °C.

Regarding `C#Cc1cn([C@@H]2O[C@@H]3COP(=O)(O)OC4C(O)[C@@H](COP(=O)(O)OC3C2O)C[C@H]4n2cnc3c(=O)[nH]c(N)nc32)c2ncnc(N)c12` (stereo partly drawn) [Compound 114, (6R,8R,15R,17R)-8-{4-amino-5-ethynyl-7H-pyrrolo 2,3-dlpyrimidin-7-yl}-17-(2-amino-6-oxo-6,9-dihydro-1H-purin-9-yl)-3,9,12,18-tetrahydroxy-2,4,7,11,13-pentaoxa-3λ^5,12λ^5-diphosphatricyclo[13.2.1.0^6,10]octadecane-3,12-dione], the ΔTm at 150 µM was 10.3 °C.

`Nc1ncc2ncn([C@@H]3O[C@@H]4COP(=O)(O)OC5C(O)[C@@H](COP(=O)(O)OC4C3O)C[C@H]5n3cnc4c(=O)[nH]cnc43)c2n1` (stereo partly drawn) [Compound 119, (6R,8R,15R,17R)-8-(2-amino-9H-purin-9-yl)-3,9,12,18-tetrahydroxy-17-(6-oxo-6,9-dihydro-1H-purin-9-yl)-2,4,7,11,13-pentaoxa-3λ^5,12λ^5-diphosphatricyclo[13.2.1.0^6,10]octadecane-3,12-dione]: the thermal shift (ΔTm) at 150 µM came out at 13.7 °C.
